Molecular target: recombinant CpLDH protein (Cryptosporidium parvum, UniProt Q9GT92, F198L/K295E/R251K)

| Compound | MEAN CpLDH INHIBITION (%) |
| --- | --- |
| [Mo] [NSC622116] | -10.74% |
| COc1cc2oc(=O)cc(C)c2cc1[N+](=O)[O-] [NSC299879] | -32.05% |
| O=C1NC(=S)NC(=O)C1C(=O)Nc1ccccc1 [NSC336628] | -66.49% |
| C[C@H]1CCC/C=C/[C@@H]2C[C@H](O)C[C@H]2[C@H](O)/C=C/C(=O)O1 [NSC89671] | -22.45% |
| [Mo] [NSC622124] | 0.01% |
| COc1ccc2c(c1)CCc1c-2n[nH]c1-c1[nH]nc2c1CCc1cc(OC)ccc1-2 [NSC371846] | -16.04% |
| CCN(CC)c1ccc2cc3ccc(=[N+](CC)CC)cc-3oc2c1.[Cl-] [NSC44690] | -28.19% |
| COc1cc(C[C@H]2c3cc(OC)c(OC)cc3CCN2C)c(Oc2cc3c(cc2OC)-c2c(OC)c(OC)cc4c2[C@H](C3)N(C)CC4)cc1OC [NSC68075] | -148.49% |
| CNc1nc(N(C)C)nc(N(C)C)n1 [NSC118742] | -28.34% |
| O=C(NC1=C(Cl)C(=O)c2ccccc2C1=O)C(=O)C(C(=O)c1ccc2ccccc2c1)C1OC(=O)c2ccccc21 (stereo not shown) [NSC641233] | -51.96% |
| CO[C@@H]1C[C@@H](C[C@H]2CC[C@H](C)[C@H]([C@@H](C)C(=O)[O-])O2)O[C@]2(O[C@](C)([C@H]3CC[C@@](C)([C@@H]4O[C@@H]([C@H]5O[C@@](O)(CO)[C@H](C)C[C@@H]5C)C[C@@H]4C)O3)C[C@H]2C)[C@@H]1C.[Na+] [NSC292567] | -134.14% |
| COc1cc(OC)c(OC)cc1/C=C/c1ccnc2ccccc12 [NSC80756] | -22.71% |
| COc1cccc2c1cc([N+](=O)[O-])c1c(C(=O)O)cc3c(c12)OCO3 [NSC11926] | -19.30% |
| O=C1C=C(Nc2ccccc2C(=O)CC(=O)C(=O)Nc2ccc(Cl)cc2)c2ccccc2C1=O [NSC641253] | -12.80% |
| O=c1c(Br)c(-c2ccccc2)[nH]c2ccccc12 [NSC12825] | -13.98% |
| N[C@@H](Cc1ccc2oc3cc(=O)c4ccccc4c-3nc2c1)C(=O)O [NSC672425] | -0.60% |
| O=C(c1nc2ccc(Cl)cc2[nH]c1=O)C(O)c1ccc2c(c1)OCO2 (stereo not shown) [NSC642649] | -27.23% |
| OC[C@H]1O[C@@H](n2cnc3cncnc32)[C@H](O)[C@@H]1O [NSC65423] | -32.77% |
| CC1=C(O)c2ccccc2C(=O)C1=O [NSC11897] | -2.25% |
| O=[N+]([O-])c1ccc(N=Nc2c(O)[nH]c3ccccc23)c([N+](=O)[O-])c1 [NSC4810] | -33.40% |
| COc1c(O[C@@H]2O[C@H](CO)[C@@H](O)[C@H](O)[C@H]2O)cc2c(c1OC)-c1ccc(OC)c(=O)cc1[C@@H](NC(C)=O)CC2 [NSC32992] | -5.35% |
| CC(C)c1oc(=O)cc2c1[C@@H](O)[C@H]1OC(=O)[C@@]3(C)[C@@H](O)[C@H]4O[C@H]4[C@@]2(C)[C@@H]13 [NSC211500] | -13.24% |
| COc1ccc(C2C=C(c3ccc4c(c3)OCO4)Oc3c2c(=O)oc2ccccc32)cc1OC (stereo not shown) [NSC211489] | -11.02% |
| C[N+](C)(C)CC1CCCC1=O.[I-] (stereo not shown) [NSC621889] | -0.31% |
| CC1(C)N=C(N)N=C(N)N1c1ccc(CCCCc2ccc(Cl)cc2Cl)cc1 [NSC104129] | -53.74% |
| Cc1ccc(N=Nc2c(O)ccc3ccccc23)cc1 [NSC106296] | -44.71% |
| O=C1CCC(c2ccccc2)=NN1c1nc2ccccc2s1 [NSC629659] | -32.05% |

| Compound | MEAN CpLDH INHIBITION (%) |
| --- | --- |
| OCc1ccc(-c2ccc(-c3ccc(CO)s3)o2)s1 [NSC652287] | -15.92% |
| CC(C)CCCCCCCCCCCCC(=O)NCC(=O)NC1C(O)C(O)C(Nc2ncnc3nc[nH]c23)OC1C(O)CO (stereo not shown) [NSC65104] | -113.50% |
| CN(CO)c1nc(N(C)CO)nc(N(C)CO)n1 [NSC283162] | -65.77% |
| COc1nc(N)nc2nc[nH]c12 [NSC37364] | -36.91% |
| N#CC(=S)Nc1ccc(Cl)c(Cl)c1 [NSC379531] | -50.91% |
| COc1ccc(Cc2nc3ccccc3s2)cc1OC [NSC632233] | -7.14% |
| Cc1ccc(C2NC(=O)c3ccccc3N2)s1 (stereo not shown) [NSC175634] | -31.59% |
| C[C@@H]1C[C@H]2OC(=O)[C@@]3(C)CCC[C@@](C)([C@@H]23)[C@@]1(O)CCc1ccoc1 [NSC36693] | -16.69% |
| C[n+]1ccc(-c2cc[n+](C)cc2)cc1.[Cl-].[Cl-] [NSC263500] | -58.44% |
| CCCCCCC1CC(=O)C1(Cl)Cl (stereo not shown) [NSC666526] | -2.48% |
| C[C@@H](N)C(=O)NC(CO)C(O)C(N)C=O.Cl (stereo partly shown) [NSC278619] | -43.32% |
| CC(=O)N=C1N(/C=C2\C(=O)Oc3ccccc3C2=O)C(=O)/C(=C/c2ccccc2Cl)N1C [NSC658494] | -56.68% |
| Br.COC1CN(C)C(=Nc2cccc3ccccc23)S1 (stereo not shown) [NSC135996] | -24.95% |
| CC(C)(C)N(Cc1ccc2c(c1)OCO2)C(=O)/C=C\[S+]([O-])c1ccccc1 (stereo not shown) [NSC705330] | -49.87% |
| C[CH2][Ge]([CH2]C)([CH2]C)[O]C(=O)CCC(=O)[O][Ge]([CH2]C)([CH2]C)[CH2]C [NSC653558] | -17.98% |
| COc1ccc(/C=C2\CCCc3ccccc3C2=O)cc1 [NSC687667] | -11.60% |
| COc1ccc2nc3cc([N+](=O)[O-])ccc3c(NNc3ccccc3)c2c1 [NSC689872] | -7.48% |
| COc1cc(O)c(Cc2ccccc2O)c(O)c1C(=O)CCc1ccccc1 [NSC241906] | -0.38% |
| CC[C@@]1(O)C[C@H](O[C@H]2C[C@H](N(C)C)[C@H](O[C@H]3C[C@H](O)[C@H](O[C@H]4C[C@H](O)[C@H](O)[C@H](C)O4)[C@H](C)O3)[C@H](C)O2)c2c(cc3c(c2O)C(=O)c2c(O)ccc(O)c2C3=O)[C@H]1C(=O)OC [NSC265211] | -47.33% |
| CC(=O)OC[C@H]1O[C@@H](NC(=O)N(CCCl)N=O)[C@H](OC(C)=O)[C@@H](OC(C)=O)[C@@H]1OC(C)=O [NSC245432] | -45.30% |
| CCCCOCc1cc(CN2CCN(C)CC2)c(O)c2ncccc12 [NSC20514] | -30.20% |
| CCCCCC/C=C\CCCCCCCCCc1cccc(OC)c1O [NSC617540] | -6.79% |
| CCN1CCC(O)(/C=C/c2ccc(C)cc2)C(C(=O)/C=C/c2ccc(C)cc2)C1.Cl (stereo not shown) [NSC657298] | -42.34% |
| CC1CCOC(=O)/C=C/C=C/C(=O)OC2CC3OC4C5OC5(C)C(O)CC4(COC(=O)C1O)C2(C)C31CO1 (stereo not shown) [NSC328166] | -4.71% |
| CN(C)CCOc1ccc(I)cc1Cc1ccccc1.Cl [NSC11930] | -34.92% |
| C[C@]12CC[C@@H]3c4ccccc4CC[C@H]3[C@@H]1CC[C@@H]2O [NSC22194] | -50.61% |
| CCN(CC)CCNc1ccc2nc(C)n3c4ccc(OC)cc4c(=O)c1c23 [NSC637993] | -46.33% |

| Compound | MEAN CpLDH INHIBITION (%) |
| --- | --- |
| CCN1/C(=C/C(C)=C/c2sc3ccccc3[n+]2CC)Sc2ccccc21.[I-] [NSC96932] | -8.62% |
| CN(C)c1ccc(/C=N/N=C2\C(=O)Nc3c(Cl)cc(Cl)cc32)cc1 [NSC327697] | -11.09% |
| Clc1cc2nc[nH]c2cc1Cl [NSC326397] | -5.75% |
| NC1=NCN([C@@H]2O[C@H](CO)[C@@H](O)[C@H]2O)C(=O)N1 [NSC264880] | -2.01% |
| CCCCCc1cc(/C=C2/N=C(c3ccc[nH]3)C=C2OC)[nH]c1C [NSC47147] | -37.67% |
| Cc1ccc(S(=O)(=O)SC/C=C/CSS(=O)(=O)c2ccc(C)cc2)cc1 [NSC624158] | -8.09% |
| Oc1[nH]c2ccccc2c1N=Nc1nc(-c2ccc(Br)cc2)cs1 [NSC657456] | -18.36% |
| COc1cc2c(c(O)c1OC)-c1c(cc(OC)c(OC)c1OC)C[C@@H](C)[C@@H](C)C2 [NSC330515] | -43.86% |
| CCCCCCCCCCCCCCCC[N+](C)(C)CCl.[Cl-] [NSC672904] | -0.06% |
| Cc1cc2c(cc1C)[n+](=O)c(C(=O)/C=C/c1ccccc1[N+](=O)[O-])c(C)n2[O-] [NSC621486] | -0.42% |
| CN(C)c1cccc(F)c1C(=O)NC(=O)Nc1ccc(Cl)cc1 [NSC603108] | -29.93% |
| COC1OC(COCc2ccc(Cl)cc2)C(OCc2ccc(Cl)cc2)C1O (stereo not shown) [NSC626120] | -0.60% |
| CC(C)(C)NCCC(O)c1cc(C(F)(F)F)nc2c(C(F)(F)F)cccc12.O=P(O)(O)O (stereo not shown) [NSC305819] | -15.30% |
| COc1cc(/C=C(\C)c2ccc3c(c2)OCO3)cc(OC)c1OC [NSC648422] | -69.44% |
| O=C1C=C(NCCc2ccccc2)c2ccccc2C1=O [NSC637731] | -17.56% |
| O=C1CC[C@H](NC(=O)Cc2ccccc2)C(=O)N1 [NSC620261] | -132.95% |
| CC(C)N.CC(C)N.[Cl-].[Cl-].[OH-].[OH-].[Pt] [NSC256927] | -46.96% |
| COc1ccc(C2c3cc4c(c(OC)c3CC3OCC(=O)C32)OCO4)cc1OC (stereo not shown) [NSC126727] | -5.88% |
| COC(C(=O)C(O)C(C)O)C1Cc2cc3cc(OC4CC(OC5CC(O)C(O)C(C)O5)C(O)C(C)O4)c(C)c(O)c3c(O)c2C(=O)C1OC1CC(OC2CC(OC3CC(O)C(OC)C(C)O3)C(O)C(C)O2)C(O)C(C)O1 (stereo not shown) [NSC269146] | -38.98% |
| Cc1c2ccnc(C(N)=O)c2c(C)c2c1[nH]c1ccccc12.Cl [NSC335142] | -27.72% |
| COCC(=O)OC1CCn2c1nc1c2C(=O)C(C)=C(NC(C)=O)C1=O (stereo not shown) [NSC651084] | -15.88% |
| Cc1nc(Cl)c(C)c(Cl)n1 [NSC40212] | -35.86% |
| CNC(=S)N/N=C/c1ccc([N+](=O)[O-])s1 [NSC169543] | -46.26% |
| CC(C)c1cccc(O)c(=O)c1 [NSC18804] | -36.91% |
| O=C1C=CC(CC(=O)c2ccc3ccccc3c2)O1 (stereo not shown) [NSC634650] | -31.23% |
